≈ marks a conversion by molar mass, not a printed value. Like-named read-outs stand apart in the source and are kept apart here.
Assays:
B. subtilis PSB3 = test: MIC, broth microdilution, B. subtilis PSB3; assay type: cell-based, Bacillus subtilis; conditions: for MICvanc/MICi: ratio of MIC of vancomycin and MIC of analogue
Protocol: (§1) The minimum inhibitory concentration (MIC) was determined using the broth microdilution method according to the antimicrobial susceptibility testing standards of the clinical and laboratory standards institute ([Clinical and Laboratory Standards Institute [CLSI], 2012]). Ultrapure water and non-inoculated broth were used as controls. In one case, a final concentration of 10 μM vancomycin was included with the vancomycin analog or control antibiotic.

E. coli XL-1 blue MRF' = test: MIC, broth microdilution, E. coli XL-1 blue MRF'; assay type: cell-based, Escherichia coli; conditions: E. coli XL-1 blue MRF'; for MICvanc/MICi: ratio of MIC of vancomycin and MIC of analogue
Protocol: as §1

E. faecalis VSE 1 = test: MIC, broth microdilution, vancomycin-sensitive E. faecalis (VSE 1); assay type: cell-based, Enterococcus faecalis; conditions: for MICvanc/MICi / MIC-fold improvement vs. vancomycin: ratio of MIC of vancomycin and MIC of analogue; for MIC: read-out: MIC; for MIC-fold improvement vs. vancomycin: VSE 1
Method in brief: (§2)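 Susceptibility was scored by broth microdilution (CLSI). In one instance each vancomycin analog or control antibiotic was tested in the presence of vancomycin, 10 μM final, and ultrapure water plus non-inoculated broth were included as controls.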

E. faecalis VRE 6 = test: MIC, broth microdilution, vancomycin-resistant E. faecalis VRE 6 (VanA); assay type: cell-based, Enterococcus faecalis; conditions: for MICvanc/MICi / MIC-fold improvement vs. vancomycin: ratio of MIC of vancomycin and MIC of analogue; for MIC: read-out: MIC; for MIC-fold improvement vs. vancomycin: VRE 6
Method in brief: as §2

E. faecalis VRE 53 = test: MIC, broth microdilution, vancomycin-resistant E. faecalis VRE 53 (VanA); assay type: cell-based, Enterococcus faecalis; conditions: for MICvanc/MICi / MIC-fold improvement vs. vancomycin: ratio of MIC of vancomycin and MIC of analogue; for MIC: read-out: MIC; for MIC-fold improvement vs. vancomycin: VRE 53
Method in brief: as §2

E. faecalis VRE 29 = test: MIC, broth microdilution, vancomycin-resistant E. faecalis VRE 29 (VanA); assay type: cell-based, Enterococcus faecalis; conditions: for MIC: Enterococcus faecalis VRE 29 (vancomycin-resistant), read-out: MIC; for MIC-fold improvement vs. vancomycin: VRE 29, ratio of MIC of vancomycin and MIC of analogue
Method in brief: as §2

E. faecalis VRE 37 = test: MIC, broth microdilution, vancomycin-resistant E. faecalis VRE 37 (VanA); assay type: cell-based, Enterococcus faecalis; conditions: Enterococcus faecalis VRE 37 (vancomycin-resistant); read-out: MIC
Method in brief: as §2

[1] = tested on: Murine leukemia (L1210) cells; test: Cytostatic activity, L1210 cell proliferation; assay type: cell-based; conditions: mean ± SD of three experiments; highest concentration tested 250 µM; 2 days; read-out: Toxicity (IC50) L1210
Method in brief: (§3)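 Readout: Coulter cell number after drug exposure at 37°C. Durations differ by line (L1210 2 days; CEM 3 days; HeLa 4 days). Stock suspension 300,000–500,000 cells/mL, diluted by mixing with compound. Endpoint: IC50 vs negative control.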

[2] = tested on: human T-lymphocyte (CEM) cells; test: Cytostatic activity, CEM cell proliferation; assay type: cell-based; conditions: mean ± SD of three experiments; highest concentration tested 250 µM; 3 days; read-out: Toxicity (IC50) CEM
Method in brief: as §3

[3] = tested on: human cervix carcinoma (HeLa) cells; test: Cytostatic activity, HeLa cell proliferation; assay type: cell-based; conditions: mean ± SD of three experiments; highest concentration tested 250 µM; 4 days; read-out: Toxicity (IC50) HeLa
Method in brief: as §3

[4] = tested on: L1210, CEM and HeLa cell lines; test: Cytostatic activity, average or summary over L1210, CEM and HeLa; assay type: cell-based
Method in brief: as §3

[5] = tested on: S. aureus VSSA (ATCC 6538); test: MIC, broth microdilution, vancomycin-sensitive S. aureus (VSSA/MSSA, ATCC 6538); assay type: cell-based, Staphylococcus aureus; conditions: for MIC: Staphylococcus aureus VSSA, read-out: MIC; for MIC-fold improvement vs. vancomycin: VSSA, ratio of MIC of vancomycin and MIC of analogue
Method in brief: as §2

S. aureus VISA/HIP5827 = test: MIC, broth microdilution, vancomycin-intermediate S. aureus VISA HIP5827; assay type: cell-based, Staphylococcus aureus; conditions: for MIC: Staphylococcus aureus VISA/HIP5827, read-out: MIC; for MIC-fold improvement vs. vancomycin: VISA/HIP5827, ratio of MIC of vancomycin and MIC of analogue
Method in brief: as §2

S. aureus VRSA = test: MIC, broth microdilution, vancomycin-resistant S. aureus (VRSA); assay type: cell-based, Staphylococcus aureus; conditions: for MIC: Staphylococcus aureus VRSA, read-out: MIC; for MIC-fold improvement vs. vancomycin: VRSA, ratio of MIC of vancomycin and MIC of analogue
Method in brief: as §2

MRSA KS2 = test: MIC, broth microdilution, MRSA KS2; assay type: cell-based, Staphylococcus aureus; conditions: for MIC-fold improvement vs. vancomycin: MRSA KS2, ratio of MIC of vancomycin and MIC of analogue; for MIC: Staphylococcus aureus MRSA KS2, read-out: MIC
Method in brief: as §2

MRSA KS6 = test: MIC, broth microdilution, MRSA KS6; assay type: cell-based, Staphylococcus aureus; conditions: for MIC-fold improvement vs. vancomycin: MRSA KS6, ratio of MIC of vancomycin and MIC of analogue; for MIC: Staphylococcus aureus MRSA KS6, read-out: MIC
Method in brief: as §2

MRSA KS89 = test: MIC, broth microdilution, MRSA KS89; assay type: cell-based, Staphylococcus aureus; conditions: for MIC-fold improvement vs. vancomycin: MRSA KS8, ratio of MIC of vancomycin and MIC of analogue; for MIC: Staphylococcus aureus MRSA KS8, read-out: MIC
Method in brief: as §2

MRSA KS1 = test: MIC, broth microdilution, MRSA KS1; assay type: cell-based, Staphylococcus aureus; conditions: for MIC-fold improvement vs. vancomycin: MRSA KS1, ratio of MIC of vancomycin and MIC of analogue; for MIC: Staphylococcus aureus MRSA KS1, read-out: MIC
Method in brief: as §2

[6] = tested on: Clostridium difficile ATJ ribotype 014/20; test: MIC, plate drop assay, C. difficile ATJ ribotype 014/20; assay type: cell-based; conditions: C. difficile ATJ ribotype 014/20
Method in brief: (§4)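 Twofold dilution series of test compounds were spotted onto C. difficile lawns in 0.4% BHI agar containing added calcium and magnesium salts. After overnight anaerobic incubation at 37°C, growth inhibition was scored by spot clearing; triplicate runs, ultrapure water negative control.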

[7] = tested on: Clostridium difficile AIU ribotype 027; test: MIC, plate drop assay, C. difficile AIU ribotype 027; assay type: cell-based; conditions: C. difficile AIU ribotype 027
Method in brief: as §4

[8] = Enterococcus faecalis VSE 1 (vancomycin-sensitive)
[9] = Enterococcus faecalis VRE 6 (vancomycin-resistant)
[10] = Enterococcus faecalis VRE 53 (vancomycin-resistant)
[11] = average of L1210, CEM and HeLa, read-out: Toxicity (IC50) Average

Compound	MIC (B. subtilis PSB3) [µM]	MICvanc/MICi (B. subtilis PSB3)	MIC (E. coli XL-1 blue MRF') [µM]	MICvanc/MICi (E. coli XL-1 blue MRF')	MICvanc/MICi (E. faecalis VSE 1; E. faecalis VSE 1)	MIC (E. faecalis VSE 1; E. faecalis VSE 1) [µM]	MIC (E. faecalis VSE 1; [8]) [µM]	MIC-fold improvement vs. vancomycin (E. faecalis VSE 1)	MICvanc/MICi (E. faecalis VRE 6; E. faecalis VRE 6)	MIC (E. faecalis VRE 6; E. faecalis VRE 6) [µM]	MIC (E. faecalis VRE 6; [9]) [µM]	MIC-fold improvement vs. vancomycin (E. faecalis VRE 6)	MICvanc/MICi (E. faecalis VRE 53; E. faecalis VRE 53)	MIC (E. faecalis VRE 53; E. faecalis VRE 53) [µM]	MIC (E. faecalis VRE 53; [10]) [µM]	MIC-fold improvement vs. vancomycin (E. faecalis VRE 53)	MIC (E. faecalis VRE 29) [µM]	MIC-fold improvement vs. vancomycin (E. faecalis VRE 29)	MIC (E. faecalis VRE 37) [µM]	IC50 [1] [µM]	further results
C#Cc1ccc(NC(=O)CNC(=O)C2NC(=O)C3NC(=O)C(NC(=O)C4NC(=O)C(CC(N)=O)NC(=O)C(NC(=O)C(CC(C)C)NC)C(O)c5ccc(c(Cl)c5)Oc5cc4cc(c5OC4OC(CO)C(O)C(O)C4OC4CC(C)(N)C(O)C(C)O4)Oc4ccc(cc4Cl)C3O)c3ccc(O)c(c3)-c3c(O)cc(O)cc32)cc1 (centres unmarked) [Vanc-N]	0.20 (≈ 0.321 µg/mL)	2	50 (≈ 80.3 µg/mL)	2	16	0.10 (≈ 0.161 µg/mL)	0.10 (≈ 0.161 µg/mL)	16	64	3.13 (≈ 5.03 µg/mL)	3.13 (≈ 5.03 µg/mL)	64	64	6.25 (≈ 10 µg/mL)	6.25 (≈ 10 µg/mL)	64	6.25 (≈ 10 µg/mL)	64	25 (≈ 40.1 µg/mL)	> 250	IC50 [2]: > 250 µM; IC50 [3]: > 250 µM; IC50 [4, 11]: > 250 µM; IC50 ([4]; summary over the three cell lines, read-out: IC50 (L1210, CEM, HeLa), depending on the cell line used): > 250 µM; MIC [5]: 0.10 µM (≈ 0.161 µg/mL); MIC-fold improvement vs. vancomycin [5]: 8; MIC (S. aureus VISA/HIP5827): 0.78 µM (≈ 1.25 µg/mL); MIC-fold improvement vs. vancomycin (S. aureus VISA/HIP5827): 8; MIC (S. aureus VRSA): 1.56 µM (≈ 2.5 µg/mL); MIC-fold improvement vs. vancomycin (S. aureus VRSA): 64; MIC-fold improvement vs. vancomycin (MRSA KS2): 2; MIC (MRSA KS2): 0.39 µM (≈ 0.626 µg/mL); MIC-fold improvement vs. vancomycin (MRSA KS6): 2; MIC (MRSA KS6): 0.39 µM (≈ 0.626 µg/mL); MIC-fold improvement vs. vancomycin (MRSA KS89): 2; MIC (MRSA KS89): 0.39 µM (≈ 0.626 µg/mL); MIC-fold improvement vs. vancomycin (MRSA KS1): 4; MIC (MRSA KS1): 0.20 µM (≈ 0.321 µg/mL); MIC-fold improvement vs. vancomycin [6]: 5.6; MIC-fold improvement vs. vancomycin [7]: 29
C#Cc1ccc(-c2ccc(C(=O)NCCCNC(=O)[C@H]3NC(=O)[C@H]4NC(=O)[C@H](NC(=O)[C@@H]5NC(=O)[C@H](CC(N)=O)NC(=O)[C@H](NC(=O)[C@@H](CC(C)C)NC)[C@H](O)c6ccc(c(Cl)c6)Oc6cc5cc(c6O[C@@H]5O[C@H](CO)[C@@H](O)[C@H](O)[C@H]5O[C@H]5C[C@](C)(N)[C@H](O)[C@H](C)O5)Oc5ccc(cc5Cl)[C@H]4O)c4ccc(O)c(c4)-c4c(O)cc(O)cc43)cc2)cc1 [Vanc-S]	0.20 (≈ 0.342 µg/mL)	2	50 (≈ 85.5 µg/mL)	2	64	0.03 (≈ 0.0513 µg/mL)	0.03 (≈ 0.0513 µg/mL)	64	256	0.78 (≈ 1.33 µg/mL)	0.78 (≈ 1.33 µg/mL)	256	128	3.13 (≈ 5.35 µg/mL)	3.13 (≈ 5.35 µg/mL)	128	6.25 (≈ 10.7 µg/mL)	64	25 (≈ 42.7 µg/mL)	10 ± 4	IC50 [2]: 5.6 ± 1.1 µM; IC50 [3]: 70 ± 8 µM; IC50 [4, 11]: 29 µM; MIC [5]: 0.10 µM (≈ 0.171 µg/mL); MIC-fold improvement vs. vancomycin [5]: 8; MIC (S. aureus VISA/HIP5827): 0.39 µM (≈ 0.667 µg/mL); MIC-fold improvement vs. vancomycin (S. aureus VISA/HIP5827): 16; MIC (S. aureus VRSA): 0.78 µM (≈ 1.33 µg/mL); MIC-fold improvement vs. vancomycin (S. aureus VRSA): 128; MIC-fold improvement vs. vancomycin (MRSA KS2): 4; MIC (MRSA KS2): 0.20 µM (≈ 0.342 µg/mL); MIC-fold improvement vs. vancomycin (MRSA KS6): 2; MIC (MRSA KS6): 0.39 µM (≈ 0.667 µg/mL); MIC-fold improvement vs. vancomycin (MRSA KS89): 4; MIC (MRSA KS89): 0.20 µM (≈ 0.342 µg/mL); MIC-fold improvement vs. vancomycin (MRSA KS1): >8; MIC (MRSA KS1): <0.10 µM

Source: paper PMC6001238, “Iterative Chemical Engineering of Vancomycin Leads to Novel Vancomycin Analogs With a High in Vitro Therapeutic Index” (Frontiers in Microbiology, 2018)
